In US20230190755A1, “Topical formulations of PI3K-delta inhibitors” (Incyte Corporation, priority 2021, published 2023):
Structures can show the parent of a compound that is named as a salt.

What was measured:
[1] = target: T1, PI3Kβ (Homo sapiens, UniProt P42338); assay: PI3K enzyme assay of Example 7 ([γ-33P]ATP filter plate); type: biochemical
T1 construct: purchased Millipore (Bedford, Mass.)
Description: (§1) Materials: Lipid kinase substrate, phosphoinositol-4,5-bisphosphate (PIP2), are purchased from Echelon Biosciences (Salt Lake City, Utah). PI3K isoforms α, β, δ and γ are purchased from Millipore (Bedford, Mass.). ATP, MgCl2, DTT, EDTA, MOPS and CHAPS are purchased from Sigma-Aldrich (St. Louis, Mo.).
(§2) The kinase reaction are conducted in clear-bottom 96-well plate from Thermo Fisher Scientific in a final volume of 24 μL. Inhibitors are first diluted serially in DMSO and added to the plate wells before the addition of other reaction components. The final concentration of DMSO in the assay is 0.5%. The PI3K assays are carried out at room temperature in 20 mM MOPS, pH 6.7, 10 mM MgCl2, 5 mM DTT and CHAPS 0.03%. The reaction mixture is prepared containing 50 μM PIP2, kinase and varying concentration of inhibitors. Reactions are initiated by the addition of ATP containing 2.2 μCi [γ-^33P]ATP to a final concentration of 1000 μM. The final concentration of PI3K isoforms α, β, δ and γ in the assay were 1.3, 9.4, 2.9 and 10.8 nM, respectively. Reactions are incubated for 180 minutes and terminated by the addition of 100 μL of 1 M potassium phosphate pH 8.0, 30 mM EDTA quench buffer. A 100 μL aliquot of the reaction solution are then transferred to 96-well Millipore MultiScreen IP 0.45 μm PVDF filter plate (The filter plate is prewetted with 200 μL 100% ethanol, distilled water, and 1 M potassium phosphate pH 8.0, respectively). The filter plate is aspirated on a Millipore Manifold under vacuum and washed with 18×200 μL wash buffer containing 1 M potassium phosphate pH 8.0 and 1 mM ATP. After drying by aspiration and blotting, the plate is air dried in an incubator at 37° C. overnight. Packard TopCount adapter (Millipore) is then attached to the plate followed with addition of 120 μL Microscint 20 scintillation cocktail (Perkin Elmer) in each well. After the plate sealing, the radioactivity of the product is determined by scintillation counting on Topcount (Perkin-Elmer). IC50 determination is performed by fitting the curve of percent control activity versus the log of the inhibitor concentration using the GraphPad Prism 3.0 software.

[2] = target: T2, PI3Kα (Homo sapiens, UniProt P42336); assay: as above; type: biochemical
T2 construct: purchased Millipore (Bedford, Mass.)
Description: as §1, §2

[3] = target: T3, PI3Kδ (Homo sapiens, UniProt O00329); assay: as above; type: biochemical
T3 construct: purchased Millipore (Bedford, Mass.)
T3 sequence (O00329 whole entry): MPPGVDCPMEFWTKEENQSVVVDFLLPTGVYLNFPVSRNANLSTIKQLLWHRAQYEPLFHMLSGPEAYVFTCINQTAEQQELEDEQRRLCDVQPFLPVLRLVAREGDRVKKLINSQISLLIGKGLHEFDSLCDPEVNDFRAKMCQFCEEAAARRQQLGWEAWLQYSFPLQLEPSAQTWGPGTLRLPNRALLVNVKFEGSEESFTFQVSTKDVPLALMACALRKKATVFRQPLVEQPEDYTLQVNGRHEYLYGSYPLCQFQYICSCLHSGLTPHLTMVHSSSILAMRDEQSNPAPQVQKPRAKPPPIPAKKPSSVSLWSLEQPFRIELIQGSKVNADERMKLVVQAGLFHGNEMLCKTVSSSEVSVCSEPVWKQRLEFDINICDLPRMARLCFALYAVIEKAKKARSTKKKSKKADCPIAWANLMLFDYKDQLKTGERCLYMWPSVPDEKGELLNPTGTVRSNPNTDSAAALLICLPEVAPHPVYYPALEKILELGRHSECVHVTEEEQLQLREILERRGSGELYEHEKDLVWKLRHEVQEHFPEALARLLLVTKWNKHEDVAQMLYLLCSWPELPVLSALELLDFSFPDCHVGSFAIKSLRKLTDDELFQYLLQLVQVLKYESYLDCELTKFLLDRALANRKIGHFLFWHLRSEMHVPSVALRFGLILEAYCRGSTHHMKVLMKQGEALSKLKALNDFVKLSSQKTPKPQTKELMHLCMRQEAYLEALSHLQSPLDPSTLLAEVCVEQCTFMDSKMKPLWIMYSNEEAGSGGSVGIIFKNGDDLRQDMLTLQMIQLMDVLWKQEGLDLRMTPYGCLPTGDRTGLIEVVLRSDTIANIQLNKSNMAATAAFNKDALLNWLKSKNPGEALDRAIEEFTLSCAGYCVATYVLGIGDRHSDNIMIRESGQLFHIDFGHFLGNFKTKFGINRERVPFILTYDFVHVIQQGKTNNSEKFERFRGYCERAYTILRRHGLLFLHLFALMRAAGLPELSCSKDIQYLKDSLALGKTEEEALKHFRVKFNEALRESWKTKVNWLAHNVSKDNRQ
T3 sequence (P27986 whole entry partner): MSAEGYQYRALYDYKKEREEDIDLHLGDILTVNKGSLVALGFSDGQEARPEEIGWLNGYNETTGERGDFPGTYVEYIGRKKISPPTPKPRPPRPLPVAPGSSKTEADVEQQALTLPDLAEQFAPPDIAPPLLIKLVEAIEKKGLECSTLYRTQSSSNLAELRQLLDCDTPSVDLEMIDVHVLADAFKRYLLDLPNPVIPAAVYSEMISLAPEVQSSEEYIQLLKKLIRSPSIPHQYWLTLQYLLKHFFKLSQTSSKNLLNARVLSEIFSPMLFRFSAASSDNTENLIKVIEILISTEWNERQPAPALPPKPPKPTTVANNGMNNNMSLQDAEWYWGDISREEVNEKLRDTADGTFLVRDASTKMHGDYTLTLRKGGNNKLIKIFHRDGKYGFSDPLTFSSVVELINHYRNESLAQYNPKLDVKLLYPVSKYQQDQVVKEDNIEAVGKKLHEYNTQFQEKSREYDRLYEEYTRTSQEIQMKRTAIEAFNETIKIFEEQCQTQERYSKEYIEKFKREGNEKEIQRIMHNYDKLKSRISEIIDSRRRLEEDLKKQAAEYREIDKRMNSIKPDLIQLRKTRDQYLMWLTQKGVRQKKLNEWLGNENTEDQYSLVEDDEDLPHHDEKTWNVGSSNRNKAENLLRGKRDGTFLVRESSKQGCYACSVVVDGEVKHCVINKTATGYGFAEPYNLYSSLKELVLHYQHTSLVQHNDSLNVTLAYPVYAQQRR
Description: as §1, §2

[4] = target: T4, PI3Kγ (Homo sapiens, UniProt P48736); assay: as above; type: biochemical
T4 construct: purchased Millipore (Bedford, Mass.)
T4 sequence (P48736 whole entry): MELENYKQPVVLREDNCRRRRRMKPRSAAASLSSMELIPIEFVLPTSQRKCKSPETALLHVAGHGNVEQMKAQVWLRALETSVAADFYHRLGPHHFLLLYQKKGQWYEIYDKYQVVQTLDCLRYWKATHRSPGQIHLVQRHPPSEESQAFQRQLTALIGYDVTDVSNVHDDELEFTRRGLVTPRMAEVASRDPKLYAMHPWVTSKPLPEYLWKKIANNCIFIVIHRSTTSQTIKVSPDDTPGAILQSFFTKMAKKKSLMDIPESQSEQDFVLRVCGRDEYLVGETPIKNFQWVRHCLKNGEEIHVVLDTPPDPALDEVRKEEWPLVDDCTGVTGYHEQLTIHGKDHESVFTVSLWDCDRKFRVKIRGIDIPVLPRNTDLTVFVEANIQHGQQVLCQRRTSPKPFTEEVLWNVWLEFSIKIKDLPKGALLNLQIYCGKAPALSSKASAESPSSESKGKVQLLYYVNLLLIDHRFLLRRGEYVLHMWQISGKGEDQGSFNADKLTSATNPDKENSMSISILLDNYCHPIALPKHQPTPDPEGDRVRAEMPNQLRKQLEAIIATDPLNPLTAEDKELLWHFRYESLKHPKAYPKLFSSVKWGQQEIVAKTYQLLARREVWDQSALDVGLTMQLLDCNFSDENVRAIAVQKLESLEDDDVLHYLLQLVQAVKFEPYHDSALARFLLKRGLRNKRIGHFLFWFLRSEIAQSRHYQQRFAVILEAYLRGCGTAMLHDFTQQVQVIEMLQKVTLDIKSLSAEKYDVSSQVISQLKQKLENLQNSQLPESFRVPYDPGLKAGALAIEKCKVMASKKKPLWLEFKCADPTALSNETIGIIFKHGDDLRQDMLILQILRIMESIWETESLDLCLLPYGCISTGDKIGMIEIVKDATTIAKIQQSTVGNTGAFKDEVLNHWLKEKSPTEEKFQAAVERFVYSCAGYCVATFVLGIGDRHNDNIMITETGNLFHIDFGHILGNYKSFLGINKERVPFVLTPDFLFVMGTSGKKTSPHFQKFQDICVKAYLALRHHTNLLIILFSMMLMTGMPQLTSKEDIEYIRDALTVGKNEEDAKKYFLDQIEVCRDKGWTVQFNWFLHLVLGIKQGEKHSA
Description: as §1, §2

[5] = Free fraction by equilibrium dialysis, human plasma and homogenized human skin; type: in vitro ADME
Description: (§3) The concentration of Compound A was measured in the epidermis, dermis, and plasma 24 hours post application. Dermal concentrations in minipigs dosed with 1.0% w/w topical formulation were 8× higher compared with dermal concentrations in minipigs dosed with the 0.1% topical formulation. The epidermal concentration for 1.0% w/w topical formulation was 6× higher compared with the 0.1% w/w topical dose. The epidermal concentrations accounted for the combined drug levels in the stratum corneum and viable epidermis layers (i.e., skin samples were not tape stripped). Relatedly, the free fraction of Compound A in plasma and homogenized human skin was evaluated by equilibrium dialysis studies. The mean free fraction in human plasma and skin was […] respectively. In minipigs, the free fraction in plasma was measured at 3.1%.

[6] = Free fraction in plasma, minipig; type: in vitro ADME
Description: as §3

[7] = IC90 value in the dermis
Description: Based on initial studies it is believed that topical administration of a strength of 0.01% may result in mean plasma concentration of approximately 1 nM at steady state.

[8] = target: PI3Kδ (p110δ/p85α) (Homo sapiens, UniProt O00329); assay: PI3Kδ scintillation proximity assay (Example 8); type: biochemical; settings: 20 μM ATP, 4 nM PI3Kδ
Chain of PI3Kδ (p110δ/p85α) (O00329 whole entry): as the sequence (O00329 whole entry) above
Chain of PI3Kδ (p110δ/p85α) (P27986 whole entry partner): as the sequence (P27986 whole entry partner) above
Excerpt: Lipid kinase substrate, D-myo-Phosphatidylinositol 4,5-bisphosphate (PtdIns(4,5)P2)D (+)-sn-1,2-di-O-octanoylglyceryl, 3-O-phospho linked (PIP2), CAS 204858-53-7, was purchased from Echelon Biosciences (Salt Lake City, Utah). PI3Kδ (p110δ/p85α) was purchased from Millipore (Bedford, Mass.). ATP, MgCl2, DTT, EDTA, MOPS and CHAPS were purchased from Sigma-Aldrich (St. Louis, Mo.). Wheat Germ Agglutinin (WGA) YSi SPA Scintillation Beads was purchased from GE healthcare life sciences (Piscataway, N.J.).
The kinase reaction was conducted in polystyrene 384-well matrix white plate from Thermo Fisher Scientific in a final volume of 25 μL. Inhibitors were first diluted serially in DMSO and added to the plate wells before the addition of other reaction components. The final concentration of DMSO in the assay was 0.5%. The PI3K assays were carried out at room temperature in 20 mM MOPS, pH 6.7, 10 mM MgCl2, 5 mM DTT and CHAPS 0.03%. […] ATP, 4 nM PI3Kδ. Reactions were incubated for 210 min and terminated by the addition of 40 μL SPA beads suspended in quench buffer: 150 mM potassium phosphate pH 8.0, 20% glycerol. 25 mM EDTA, 400 μM ATP. […] After the plate sealing, plates were shaken overnight at room temperature and centrifuged at 1800 rpm for 10 minutes, the radioactivity of the product was determined by scintillation counting on Topcount (Perkin-Elmer). […]

T1 sequence (P42338 whole entry): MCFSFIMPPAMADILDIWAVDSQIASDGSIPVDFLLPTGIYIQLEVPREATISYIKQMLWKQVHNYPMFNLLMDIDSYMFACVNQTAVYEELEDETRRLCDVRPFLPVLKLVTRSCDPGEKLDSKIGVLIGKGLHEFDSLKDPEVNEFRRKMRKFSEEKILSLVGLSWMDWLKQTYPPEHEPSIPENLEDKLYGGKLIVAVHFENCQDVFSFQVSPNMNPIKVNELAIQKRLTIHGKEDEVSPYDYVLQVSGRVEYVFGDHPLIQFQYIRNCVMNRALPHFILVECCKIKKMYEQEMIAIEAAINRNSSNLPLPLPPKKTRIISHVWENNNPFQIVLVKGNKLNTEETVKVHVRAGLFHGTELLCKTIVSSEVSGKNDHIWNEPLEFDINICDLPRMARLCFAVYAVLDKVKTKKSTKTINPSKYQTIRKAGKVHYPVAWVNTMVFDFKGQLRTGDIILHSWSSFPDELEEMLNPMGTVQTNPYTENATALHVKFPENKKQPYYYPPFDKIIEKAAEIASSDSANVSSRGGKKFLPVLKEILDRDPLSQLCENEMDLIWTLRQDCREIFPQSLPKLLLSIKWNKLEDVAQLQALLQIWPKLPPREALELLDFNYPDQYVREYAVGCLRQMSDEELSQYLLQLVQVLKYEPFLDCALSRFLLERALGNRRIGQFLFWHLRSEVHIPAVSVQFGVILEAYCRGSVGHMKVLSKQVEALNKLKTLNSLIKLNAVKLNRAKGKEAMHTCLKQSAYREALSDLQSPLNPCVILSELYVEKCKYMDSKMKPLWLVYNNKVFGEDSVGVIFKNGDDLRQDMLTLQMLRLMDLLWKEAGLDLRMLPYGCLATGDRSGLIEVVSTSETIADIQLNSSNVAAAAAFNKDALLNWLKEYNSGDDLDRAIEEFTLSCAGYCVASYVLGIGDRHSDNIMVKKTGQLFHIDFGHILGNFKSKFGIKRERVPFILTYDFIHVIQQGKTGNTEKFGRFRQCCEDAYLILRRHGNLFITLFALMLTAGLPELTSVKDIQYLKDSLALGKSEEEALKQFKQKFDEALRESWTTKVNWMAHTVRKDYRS
T1 sequence (P27986 whole entry partner): as the sequence (P27986 whole entry partner) above

SMILES	selectivity for PI3Kδ over PI3Kβ [1] [fold]	selectivity for PI3Kδ over PI3Kα [2] [fold]	selectivity for PI3Kδ (in words) [3]	selectivity for PI3Kδ over PI3Kγ [4] [fold]	fraction unbound ([5]; homogenized skin, read-out: Mean free fraction in homogenized human skin)	fraction unbound ([5]; plasma, read-out: Mean free fraction in human plasma)	fraction unbound [6]	IC90 [7] [nM]	IC50 [8] [nM]
CCOc1c([C@H](C)n2nc(C)c3c(N)ncnc32)cc(Cl)c(F)c1[C@@H]1CNC(=O)C1 [Compound A HCl, (R)-4-(3-((S)-1-(4-Amino-3-methyl-1H-pyrazolo[3,4-d]pyrimidin-1-yl)ethyl)-5-chloro-2-ethoxy-6-fluorophenyl)pyrrolidin-2-one Hydrochloric Acid Salt]	> 100	> 100	selective inhibitor for PI3Kδ	> 100	–	–	–	–	–
CCOc1c([C@H](C)n2nc(C)c3c(N)ncnc32)cc(Cl)c(F)c1[C@@H]1CNC(=O)C1 [Compound A, (R)-4-(3-((S)-1-(4-amino-3-methyl-1H-pyrazolo[3,4-d]pyrimidin-1-yl)ethyl)-5-chloro-2-ethoxy-6-fluorophenyl)pyrrolidin-2-one]	–	–	–	–	0.33	0.074	0.031	~20	< 10
